Laboratory results taken from ChEMBL document CHEMBL4396970, “Benzothiazole-based compounds as potent endothelial lipase inhibitors” (Bioorg Med Chem Lett, 2019).

target: T1, Endothelial lipase (Homo sapiens, UniProt Q9Y5X9); assay: Inhibition of endothelial lipase in human serum; type: cell-free
T1 sequence (Q9Y5X9 whole entry): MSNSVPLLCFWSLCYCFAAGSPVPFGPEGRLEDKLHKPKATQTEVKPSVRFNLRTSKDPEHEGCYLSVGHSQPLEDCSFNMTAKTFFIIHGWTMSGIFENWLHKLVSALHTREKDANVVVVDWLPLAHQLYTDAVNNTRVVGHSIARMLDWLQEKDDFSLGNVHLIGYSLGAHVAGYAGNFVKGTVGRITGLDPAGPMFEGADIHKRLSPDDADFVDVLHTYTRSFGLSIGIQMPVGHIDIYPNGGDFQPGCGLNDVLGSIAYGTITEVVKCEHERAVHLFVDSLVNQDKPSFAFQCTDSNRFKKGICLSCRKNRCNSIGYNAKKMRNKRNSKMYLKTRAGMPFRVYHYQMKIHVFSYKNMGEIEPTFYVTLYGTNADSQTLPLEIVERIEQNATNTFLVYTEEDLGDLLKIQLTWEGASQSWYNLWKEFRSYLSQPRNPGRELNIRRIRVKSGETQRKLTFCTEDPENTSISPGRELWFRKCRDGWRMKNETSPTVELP

Row | IC50 | SMILES
1 | 130 nM | N#CC(C(=O)NCC(=O)NC1CC1)c1nc2ccc(-c3ccc4c(c3)C(=O)NC4)cc2s1 (racemic)
2 | 100 nM | N#CC(C(=O)NCC(=O)NC1CC1)c1nc2ccc(-c3ccc4c(c3)CNC4=O)cc2s1 (racemic)

target: T1, Endothelial lipase; assay: Inhibition of endothelial lipase (unknown origin)

Row | IC50 | SMILES
3 | 5.3 nM | N#CC(C(=O)NCC(=O)NC1CC1)c1nc2ccc(-c3ccc4c(c3)CNC4=O)cc2s1 (racemic)

target: T2, Hepatic triacylglycerol lipase (Homo sapiens, UniProt P11150); assay: Inhibition of hepatic lipase (unknown origin)
T2 sequence (P11150 whole entry): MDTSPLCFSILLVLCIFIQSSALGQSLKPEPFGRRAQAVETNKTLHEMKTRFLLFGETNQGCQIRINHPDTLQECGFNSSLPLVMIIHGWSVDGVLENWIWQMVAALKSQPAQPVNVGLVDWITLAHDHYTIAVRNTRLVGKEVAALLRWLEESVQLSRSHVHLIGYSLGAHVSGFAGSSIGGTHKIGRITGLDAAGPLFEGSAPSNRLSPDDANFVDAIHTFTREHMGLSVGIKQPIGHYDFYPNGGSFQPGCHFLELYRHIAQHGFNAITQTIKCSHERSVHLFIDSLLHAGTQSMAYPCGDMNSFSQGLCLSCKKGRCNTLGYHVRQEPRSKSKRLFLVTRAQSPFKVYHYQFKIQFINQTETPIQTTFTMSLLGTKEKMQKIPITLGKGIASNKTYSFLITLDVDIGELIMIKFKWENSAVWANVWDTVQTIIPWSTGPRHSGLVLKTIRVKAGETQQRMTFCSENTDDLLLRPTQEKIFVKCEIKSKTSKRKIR

Row | IC50 | SMILES
4 | 420 nM | N#CC(C(=O)NCC(=O)NC1CC1)c1nc2ccc(-c3ccc4c(c3)C(=O)NC4)cc2s1 (racemic)
5 | 70 nM | N#CC(C(=O)NCC(=O)NC1CC1)c1nc2ccc(-c3ccc4c(c3)CNC4=O)cc2s1 (racemic)
